Experimental findings from the kinase profiling compilation of Christmann-Franck et al. (2016) are described below.

A word on the residual activity: it is what remains of the control signal, in per cent. High values mean much activity left, low ones little activity left. As a reminder, the Kd is the constant that tells how readily two partners part at equilibrium. The low end stands for tighter binding, the high end for weaker binding.

Targets include RIPK2 (human) (UniProt O43353); PDGFRB (human) (UniProt P09619); RET (human) (UniProt P07949); RPS6KA6 KD2 (human) (UniProt Q9UK32); MAP2K5 (human) (UniProt Q13163); MAP3K1 (human) (UniProt Q13233); STK16 (human) (UniProt O75716).
Experiment in all cases: KINOMEscan competition binding
Another assay has as its target CDK4 CCND3 (human) (UniProt P11802+P30281). To be noted: compound 1.0 µM.
In another assay the target is PKN3 (M.tuberculosis) (UniProt Q6P5Z2). To be noted: compound 1.0 µM.
Chain of PKN3 (M.tuberculosis) (Q6P5Z2 whole entry, looked up): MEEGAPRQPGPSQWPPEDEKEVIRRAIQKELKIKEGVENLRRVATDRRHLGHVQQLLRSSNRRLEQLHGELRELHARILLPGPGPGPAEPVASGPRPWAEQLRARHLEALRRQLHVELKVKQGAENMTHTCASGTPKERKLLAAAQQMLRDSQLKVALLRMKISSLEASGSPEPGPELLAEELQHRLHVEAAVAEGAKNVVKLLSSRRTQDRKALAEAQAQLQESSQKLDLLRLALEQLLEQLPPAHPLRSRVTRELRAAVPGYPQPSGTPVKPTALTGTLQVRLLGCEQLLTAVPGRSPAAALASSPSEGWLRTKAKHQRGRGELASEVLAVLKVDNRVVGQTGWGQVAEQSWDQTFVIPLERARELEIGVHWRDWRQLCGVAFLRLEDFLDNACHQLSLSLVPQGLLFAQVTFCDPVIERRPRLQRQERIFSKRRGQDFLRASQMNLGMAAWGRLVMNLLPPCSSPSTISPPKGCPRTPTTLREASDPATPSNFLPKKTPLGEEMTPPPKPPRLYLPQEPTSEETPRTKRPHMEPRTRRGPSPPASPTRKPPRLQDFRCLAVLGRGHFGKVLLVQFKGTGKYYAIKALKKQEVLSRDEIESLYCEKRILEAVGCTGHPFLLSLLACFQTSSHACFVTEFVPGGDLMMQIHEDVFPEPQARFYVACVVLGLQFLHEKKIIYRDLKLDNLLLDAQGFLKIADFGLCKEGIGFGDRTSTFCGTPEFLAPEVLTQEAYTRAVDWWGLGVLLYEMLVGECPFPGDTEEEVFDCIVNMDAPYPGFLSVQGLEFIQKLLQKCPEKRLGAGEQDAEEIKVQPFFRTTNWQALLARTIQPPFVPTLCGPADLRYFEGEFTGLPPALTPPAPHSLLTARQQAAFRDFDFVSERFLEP
Assay [1] deals with FLT3 (human), P36888 [ITD]. Particulars: compound 1.0 µM.
Another assay concerns the target CDK4 CCND1 (human) (UniProt P11802+P24385). To be noted: compound 1.0 µM.
For the next assay, the system named is CPK1 (P.falciparum). To be noted: compound 1.0 µM.

Chain of RPS6KA6 KD2 (human) (Q9UK32 whole entry, looked up): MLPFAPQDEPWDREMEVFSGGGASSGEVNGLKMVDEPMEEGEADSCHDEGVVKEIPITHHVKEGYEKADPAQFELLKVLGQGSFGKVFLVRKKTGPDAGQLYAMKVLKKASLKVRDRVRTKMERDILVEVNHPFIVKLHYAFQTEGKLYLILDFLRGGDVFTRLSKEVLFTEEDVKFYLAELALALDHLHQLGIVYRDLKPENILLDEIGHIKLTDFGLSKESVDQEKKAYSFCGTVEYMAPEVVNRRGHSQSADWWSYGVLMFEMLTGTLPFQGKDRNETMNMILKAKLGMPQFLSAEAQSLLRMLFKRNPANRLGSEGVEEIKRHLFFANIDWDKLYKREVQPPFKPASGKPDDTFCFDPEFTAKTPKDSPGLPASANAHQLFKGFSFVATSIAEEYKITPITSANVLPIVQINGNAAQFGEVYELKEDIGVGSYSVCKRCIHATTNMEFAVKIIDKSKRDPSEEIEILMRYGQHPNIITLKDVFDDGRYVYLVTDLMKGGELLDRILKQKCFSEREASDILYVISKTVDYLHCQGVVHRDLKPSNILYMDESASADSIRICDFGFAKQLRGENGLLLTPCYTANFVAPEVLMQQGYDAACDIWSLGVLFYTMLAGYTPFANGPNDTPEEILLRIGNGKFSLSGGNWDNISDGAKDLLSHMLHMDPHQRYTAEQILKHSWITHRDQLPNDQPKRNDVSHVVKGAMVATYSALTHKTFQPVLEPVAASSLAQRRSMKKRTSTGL
Chain of RIPK2 (human) (O43353 whole entry, looked up): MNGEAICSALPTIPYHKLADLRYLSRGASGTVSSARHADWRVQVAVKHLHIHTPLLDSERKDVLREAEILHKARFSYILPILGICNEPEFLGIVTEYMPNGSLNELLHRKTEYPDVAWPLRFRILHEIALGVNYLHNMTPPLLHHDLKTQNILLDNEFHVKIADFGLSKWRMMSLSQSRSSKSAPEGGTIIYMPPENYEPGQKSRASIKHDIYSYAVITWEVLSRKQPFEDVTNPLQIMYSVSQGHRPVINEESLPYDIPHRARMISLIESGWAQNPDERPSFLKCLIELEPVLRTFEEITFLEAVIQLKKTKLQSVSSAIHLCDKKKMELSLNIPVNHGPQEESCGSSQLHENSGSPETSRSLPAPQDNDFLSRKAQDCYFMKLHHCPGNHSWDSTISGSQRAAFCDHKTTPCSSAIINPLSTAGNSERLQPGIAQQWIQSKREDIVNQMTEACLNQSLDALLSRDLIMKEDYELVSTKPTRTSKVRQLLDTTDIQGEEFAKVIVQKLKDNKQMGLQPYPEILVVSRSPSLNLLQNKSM
Chain of CDK4 CCND1 (human) (P11802 whole entry, looked up): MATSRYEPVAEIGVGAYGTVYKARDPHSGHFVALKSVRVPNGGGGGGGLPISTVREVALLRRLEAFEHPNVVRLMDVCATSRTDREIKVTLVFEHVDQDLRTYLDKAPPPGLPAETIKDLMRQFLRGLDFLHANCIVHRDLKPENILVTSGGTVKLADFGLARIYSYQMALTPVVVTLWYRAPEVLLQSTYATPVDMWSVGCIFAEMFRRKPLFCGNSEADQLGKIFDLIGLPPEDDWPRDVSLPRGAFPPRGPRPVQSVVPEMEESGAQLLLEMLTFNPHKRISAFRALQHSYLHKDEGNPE
Chain of CDK4 CCND1 (human) (P24385 whole entry, looked up): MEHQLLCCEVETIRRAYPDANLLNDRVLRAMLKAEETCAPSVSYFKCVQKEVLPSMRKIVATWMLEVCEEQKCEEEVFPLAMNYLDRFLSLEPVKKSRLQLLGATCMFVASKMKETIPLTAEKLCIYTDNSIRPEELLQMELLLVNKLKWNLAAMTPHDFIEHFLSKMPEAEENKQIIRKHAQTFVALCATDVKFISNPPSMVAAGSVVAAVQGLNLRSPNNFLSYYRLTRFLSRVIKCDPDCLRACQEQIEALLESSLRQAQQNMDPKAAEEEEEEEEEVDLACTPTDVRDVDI
Chain of CDK4 CCND3 (human) (P11802 whole entry, looked up): as the sequence (P11802 whole entry, looked up) above
Chain of CDK4 CCND3 (human) (P30281 whole entry, looked up): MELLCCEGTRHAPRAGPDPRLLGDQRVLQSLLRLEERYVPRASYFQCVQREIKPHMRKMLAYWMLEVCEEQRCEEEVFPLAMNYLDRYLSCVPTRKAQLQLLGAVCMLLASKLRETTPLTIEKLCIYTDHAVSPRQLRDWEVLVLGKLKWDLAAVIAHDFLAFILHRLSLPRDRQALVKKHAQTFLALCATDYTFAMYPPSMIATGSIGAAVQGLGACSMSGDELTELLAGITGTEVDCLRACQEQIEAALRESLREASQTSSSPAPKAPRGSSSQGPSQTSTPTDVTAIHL
Chain of RET (human) (P07949 whole entry, looked up): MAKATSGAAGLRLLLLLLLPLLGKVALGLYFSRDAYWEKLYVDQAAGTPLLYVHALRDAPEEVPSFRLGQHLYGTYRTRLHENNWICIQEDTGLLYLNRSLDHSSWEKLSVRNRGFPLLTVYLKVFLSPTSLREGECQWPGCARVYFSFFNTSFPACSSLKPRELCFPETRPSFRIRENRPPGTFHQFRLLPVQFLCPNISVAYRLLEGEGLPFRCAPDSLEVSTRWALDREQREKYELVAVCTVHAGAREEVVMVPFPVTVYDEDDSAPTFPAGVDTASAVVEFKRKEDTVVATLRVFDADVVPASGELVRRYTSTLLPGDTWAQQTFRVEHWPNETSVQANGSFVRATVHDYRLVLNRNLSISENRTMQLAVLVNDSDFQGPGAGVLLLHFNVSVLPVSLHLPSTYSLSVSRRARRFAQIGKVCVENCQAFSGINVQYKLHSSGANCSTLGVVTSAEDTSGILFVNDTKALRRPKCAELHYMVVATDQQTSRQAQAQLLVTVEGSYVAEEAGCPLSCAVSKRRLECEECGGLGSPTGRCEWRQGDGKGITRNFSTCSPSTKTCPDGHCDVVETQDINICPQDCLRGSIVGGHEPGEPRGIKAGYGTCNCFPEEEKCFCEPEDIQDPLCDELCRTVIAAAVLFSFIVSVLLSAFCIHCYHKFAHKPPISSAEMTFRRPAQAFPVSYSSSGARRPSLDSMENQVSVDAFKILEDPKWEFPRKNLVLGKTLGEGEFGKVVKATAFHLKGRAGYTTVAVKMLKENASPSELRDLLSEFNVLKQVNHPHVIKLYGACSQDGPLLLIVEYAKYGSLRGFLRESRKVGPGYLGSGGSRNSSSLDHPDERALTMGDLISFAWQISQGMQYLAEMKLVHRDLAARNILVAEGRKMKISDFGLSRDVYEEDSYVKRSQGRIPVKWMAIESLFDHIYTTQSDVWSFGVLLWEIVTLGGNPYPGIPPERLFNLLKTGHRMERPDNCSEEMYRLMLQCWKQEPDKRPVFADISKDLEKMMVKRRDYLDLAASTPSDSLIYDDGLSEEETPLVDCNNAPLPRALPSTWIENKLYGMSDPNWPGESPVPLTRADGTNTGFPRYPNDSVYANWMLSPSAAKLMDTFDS
Chain of STK16 (human) (O75716 whole entry, looked up): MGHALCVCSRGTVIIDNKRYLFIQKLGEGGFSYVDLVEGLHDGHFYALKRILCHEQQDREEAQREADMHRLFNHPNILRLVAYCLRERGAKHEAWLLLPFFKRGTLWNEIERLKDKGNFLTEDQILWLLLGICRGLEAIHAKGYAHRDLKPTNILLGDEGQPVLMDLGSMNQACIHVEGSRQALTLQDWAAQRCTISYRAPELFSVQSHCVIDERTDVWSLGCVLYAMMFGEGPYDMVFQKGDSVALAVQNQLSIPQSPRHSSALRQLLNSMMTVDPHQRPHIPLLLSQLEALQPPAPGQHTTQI
Chain of MAP2K5 (human) (Q13163 whole entry, looked up): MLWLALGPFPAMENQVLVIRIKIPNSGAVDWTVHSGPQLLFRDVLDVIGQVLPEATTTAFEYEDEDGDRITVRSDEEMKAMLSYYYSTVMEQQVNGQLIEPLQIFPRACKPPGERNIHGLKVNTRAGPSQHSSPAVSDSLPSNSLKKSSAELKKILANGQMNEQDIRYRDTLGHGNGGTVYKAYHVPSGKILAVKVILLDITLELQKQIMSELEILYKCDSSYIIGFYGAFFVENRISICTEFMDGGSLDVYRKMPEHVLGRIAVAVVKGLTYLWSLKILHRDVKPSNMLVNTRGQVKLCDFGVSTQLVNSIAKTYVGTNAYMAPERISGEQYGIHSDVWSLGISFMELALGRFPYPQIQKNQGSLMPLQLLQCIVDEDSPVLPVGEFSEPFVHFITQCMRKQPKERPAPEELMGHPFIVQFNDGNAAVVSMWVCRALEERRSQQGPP

On to `Cc1ccc(-c2c(/C=C(\C#N)C(=O)NC(C)C)n(CCCO)c3ncnc(N)c23)cc1`, for which the residual activity at CDK4 CCND3 (human) came to 95%; at CDK4 CCND1 (human) it was 100%. For the same compound, the dissociation constant (Kd) on RIPK2 (human) is 310 nM; on PDGFRB (human) it was 2800 nM; on RET (human) it was 360 nM; at RPS6KA6 KD2 (human), 1.2 nM; on MAP2K5 (human) it was 2300 nM; on MAP3K1 (human), 45 nM. This compound also registered an equilibrium dissociation constant (Kd) on STK16 (human) of 230 nM. The kinase still bound, per cent of control was found to be 100% on PKN3 (M.tuberculosis), 75% in [1] and 68% in the assay with CPK1 (P.falciparum).
